Test results published in patent US6617491B2, “Use of drosophila melanogaster as a model for screening psychostimulant plant materials” (Council of Scientific & Industrial Research, priority 2001, dated 2003).

Key:
[1] = test system: Sh^5eag^1 mutant flies; experiment: Time of recovery from diethyl ether anesthesia in individual fly pairs; assay type: in vivo, Drosophila melanogaster; details: NF+PS; PS 1 mg/ml in fly food; 10 fly pairs
Procedure: Standard Drosophila manipulation methods were followed. Cultures were grown on a medium containing maize powder, sugar, yeast and Nipagin. Flies were maintained and further manipulated at room temperature. Experimental conditions were kept identical throughout. The double mutant Sh^5eag^1 was generated using standard methods of Drosophila genetics. Male flies of similar age were used in the experiment. In routine screening, flies were anesthetized in various groups and then allowed to recover in an identical manner. For further testing, individual fly pairs were used as described below. Following different treatments, flies were first anesthetized with diethyl ether and healthy looking individuals shifted to a number of empty vials in such a way that each vial received two flies, one from each treatment. Before shifting, flies from one of the two treatments were marked on their wings for the purpose of identification. Flies were allowed to recover fully. After an hour, each fly pair was subjected to the following test. […]
To understand the above activity, and others, if any, of the Acorus extracts in Drosophila in a quantitative manner, following experiments were carried out using acetone extract as the representative substance. […] First, time of recovery from ether anesthesia was measured in individual flies. […] Following this, recovery time was determined as described earlier. […]

[2] = test system: Sh^5eag^1 mutant flies; details: from Sharma and Kumar, Ser. No. 09/789,525; cited from earlier work
[3] = test system: Sh^5eag^1 mutant flies; experiment: Spontaneous locomotor activity in flies, pair-wise visual comparison of vials on a scale of '0', '+' or '−'; assay type: in vivo, Drosophila melanogaster; details: baseline NF flies; 73 comparisons; 5th day; 20 flies per vial
Procedure: To further understand the activity profile of the plant material, flies were treated with either NF or NF containing either ethanol alone (NF+ET) or ethanol and extract both (NF+ET+EX). The ethanol concentration used was 20% (v/v). Other details were as described earlier. On 5th day, spontaneous locomotor activity in flies was pair-wise compared either between NF and NF+ET or between NF+ET and NF+ET+EX. Two vials representing the two treatments were kept side by side in an inverted position. There were 20 flies in each vial. The flies' activity in a group was visually estimated on a scale of ‘0’, ‘+’ or ‘−’, as described below. To compare between NF and NF+ET, the sum total of activity seen in the vial containing NF flies was considered ‘0’. The activity in the NF+ET vial was then given a ‘0’, ‘+’ or ‘−’, depending on whether it is equal, more or less than the activity observed in NF vial respectively. The process was repeated 73 times spanning an entire day. In this test, ethanol treated flies received 23 ‘0’s, no ‘+’ and 50 ‘−’s. […] NF+
ET and NF+ET+EX flies were similarly compared, with the activity in the former serving as baseline, i.e., ‘0’. In this test, NF+ET+EX received no ‘0’, 73 ‘+’5 and no ‘−’. […] First, ethanol decreases spontaneous locomotor activity in flies. Second, Acorus extract increases spontaneous locomotor activity in flies treated with ethanol, a CNS depressant drug.
Having observed a stimulant activity of Acorus extract in flies under the influence of alcohol, the question whether the extract also stimulates normal flies, i.e., individuals not under the drug's influence, was asked. To answer this, spontaneous locomotor activity in NF and NF+EX flies were compared, as described above. NF flies' activity served as the baseline. In the test conducted the extract treated flies received 18 ‘0’5 […] and 2 ‘−’s.

CCC1(c2ccccc2)C(=O)NC(=O)NC1=O [phenobarbital sodium]
recovery time from ether anesthesia [1]: 11.3 ± 2.38 min | effect on recovery from ether anesthesia in flies [2]: causes a delay in recovery

CCO [ethanol]
spontaneous locomotor activity: number of '0's (times equally active) [3]: 23 | spontaneous locomotor activity: number of '+'s (times more active) [3]: no | spontaneous locomotor activity: number of '−'s (times less active) [3]: 50
